Data taken from patent US4837342A, “Prostacyclin analogue, and blood circulation improving agent and anti-ulcer composition containing it as active ingredient” (Sagami Chemical Research Center, priority 1986, dated 1989).

How the values were obtained:
[1] = background; cited from earlier work
Indomethacine ulcer = Indomethacine ulcer inhibiting activity; format: in vivo, Male wister rats; conditions: rat
Text: Indomethacine ulcer inhibiting activity
Male wister rats having a weight of from 210 to 270 g were used. The rats were starved in the same manner as in Test Example 6. […] Three hours after the indomethacine administration, the test compound or PGE2 was again orally administered in the same amount. Six hours after the first administration of indomethacine, each rat was killed by cervical bertebral luxation. The stomach was taken out and fixed, and the ulcer index was obtained, in the same manner as in Test Example 6.
The indomethacine ulcer inhibiting activity of a test compound was represented by the inhibiting percentage (i.e. the inhibiting percentage of the ulcer index of the treated group to the ulcer index of the non-treated group). To the non-treated group, the solvent was administered.

diastolic blood pressure = test: Hypotensive activity, anesthetized dog; format: in vivo, crossbred adult dog; conditions: for Activity ratio, hypotensive activity: relative to prostacyclin = 1
Protocol: A male or female crossbred adult dog having a weight of from 9 to 14 kg was anesthetized by intraveous administration of sodium Pentobarbital. Then, the left carotid was exposed under artificial respiration, and the blood pressure was measured by using an electric blood pressure meter. […]

femoral artery = test: Blood flow-increasing activity in the femoral artery, anesthetized dog; format: in vivo, crossbred adult dog; conditions: for ED50: Canis lupus familiaris, dog, near arterial injection, papaverine hydrochloride 100 μg/kg = 100%; for Activity ratio, blood flow-increasing activity in femoral artery: relative to prostacyclin = 1
Protocol: Blood flow-increasing activity in the femoral artery
A male or female crossbred adult dog having a weight of from 8 to 13 kg, was anesthetized by intravenous administration of sodium Pentobarbital. Then, a tracheal cannula was inserted, and artificial respiration was conducted. The blood flow in the femoral artery was measured by inserting the annula into the left femoral artery under sodium heparin treatment and providing a blood flow measuring probe at it other end, and by using an electromagnetic flow meter. The test compound was injected into the femoral artery by near arterial injection, and the blood flow-increasing activity in the femoral artery was represented by ED50 (i.e. the dose of a test compound at which the blood flow increases by 50%, as evaluated on the bais that the blood flow increase (representing substantially the maximum reaction) by the administration of 100 μg/kg of papaveline hydrochloride into the femoral artery, is evaluted to be 100%).

[2] = tested on: Blood platelet (ADP agglutination); test: Blood platelet agglutination inhibiting activity (ADP-induced), washed rabbit platelet suspension; format: cell-based, rabbit (Japanese white male rabbits); conditions: for IC50: Oryctolagus cuniculus, Platelet, ADP 10 μM, concentration suppressing agglutination to 50%, read-out: Platelet agglutination inhibiting activity ED50, ADP agglutination; for Activity ratio, platelet agglutination inhibiting activity, ADP agglutination: relative to prostacyclin = 1
Protocol: (§1) Blood platelet aggutination inhibiting activity
(§2) Japanese white male rabbits having a weight of from 2.0 to 2.5 kg were used.
(§3) Under anesthesia with sodium Pentobarbital, blood was sampled from the carotid artery, and mixed with a 1/7 volume of an anticoagulant citric acid dextrose solution. Then, the mixture was subjected to centrifugal separation at 140×g for 15 minutes, whereupon the supernatant (platelet rich plasma:PRP) was obtained. PRP was subjected to centrifugal separation at 1,300×g for 7 minutes. The blood platelet pellets thus obtained were washed with a HEPES buffer solution (pH 6.5) for washing blood platelets, and subjected to centrifugal separation at 1,300×g for 7 minutes. The blood platelet pellets washed twice under such condition, were suspended in a suspending liquid (a buffer solution for washing blood platelets, which contains 0.1% of human fibrinogen, 1.8 mM of CaCl2 and 1.2 mM of MgCl2) to obtain a blood platelet suspension having a concentration of from 5×10^8 to 8×10^8 platelets/ml.
(§4) The platelet agglutination ability was measured by means of an agglutination meter. To 380 μl of the platelet suspension, 10 μl of a test compound or a solvent as the control, was added. Three minutes later, 10 μl of a platelet agglutinating substance (10 μM of ADP or 1 μg/ml of collagen, as the final concentration) was added thereto to induce agglutination.
(§5) The blood platelet agglutination inhibiting activity of each test compound was represented by ED50 (i.e. the concentration of the test compound where the platelet agglutination is suppressed to 50%).

ulcer = test: Anti-ulcer activity (general statement); format: in vivo, animals; conditions: compared with typical PG such as PGE2
Text: On the basis of this discovery, a further research has been made for the application to the prevention and treatment of digestive organ ulcers, and have accomplished the present invention.

Ethanol ulcer = Ethanol ulcer inhibiting activity; format: in vivo, Male wister rats; conditions: po; rat; P.O., 30 minutes before 99.5% ethanol
Protocol: Ethanol ulcer inhibiting activity
Male wister rats having a weight of from 170 to 270 g were put into individual cages and starved for 24 hours. During this starvation period, the rats were allowed to drink water freely. A test compound or PGE2 as a comparative compound was orally administered in an amount of 3, 10 or 30 μg/kg, and 30 minutes later, 1 ml of 99.5% ethanol was orally administered to each rat. One hour after the ethanol administration, each rat was filled by cervical vertebral luxation, and the stomach was taken out. A 1% formaline solution was injected into the stomach in an amount of about 8 ml, and the stomach was fixed in the formaline solution for 30 minutes. After the fixing, the stomach was severed along the greater curvature, and the mucous membrane surface of the stomach was gently washed with flowing water. Then, the total length of damages appearing on the gastric glandular portion was obtained and used as the ulcer index.
The ethanol ulcer inhibiting activity of a test compound was represented by ED50 (i.e. the dose of the test compound at which the ulcer was inhibited by 50% relative to the ulcer index of the non-treated group). To the non-treated group, the solvent was administered.

coronary artery = test: Blood flow-increasing activity in the coronary artery, anesthetized dog; format: in vivo, crossbred adult dog; conditions: for ED50: Canis lupus familiaris, dog, near arterial injection, reactive hyperemia = 100%; for Activity ratio, blood flow-increasing activity in coronary artery: relative to prostacyclin = 1
Protocol: Blood flow-increasing activity in the coronary artery
A crossbred adult dog having a weight of from 9 to 15 kg was anesthetized with sodium Pentobarbital and subjected to thoractomy under artificial respiration. After pericardiectomy, the frontal descending branch of the left coronary artery was separated from the surrounding tissues, and a blood flow-measuring probe was attached thereto under sodium heparin treatment. The coronary blood flow was measured by using an electromagnetic flow meter. The test compound was injected into the coronary artery by near arterial injection, and the blood flow-increasing activity in the coronay artery was represented by ED50 (i.e. the dose of a test compound at which the blood flow increases by 50%, as evaluated on the basis that the blood flow increase by the reactive hyperemia caused by releasing the blood flow of the coronary artery after blocking it for 15 seconds, is evaluated to be 100%).

vertebral artery = test: Blood flow-increasing activity in the vertebral artery, anesthetized dog; format: in vivo, crossbred adult dog; conditions: for ED50: Canis lupus familiaris, dog, near arterial injection, papaverine hydrochloride 100 μg/kg = 100%; for Activity ratio, blood flow-increasing activity in vertebral artery: relative to prostacyclin = 1
Text: Blood flow-increasing activity in the vertebral artery
A made or female crossbred adult dog having a weight of from 8 to 13 kg was anesthetized by intravenous administration of sodium Pentobarbital and subjected to thoractomy along the mediam line under artificial respiration to expose the left vertebral artery. Under sodium peparin treatment, a polyethylene cannula was inserted into the vertebral artery, and a blood flow-measuring probe was attached to its other end, to which a blood circulation tube led from the left femoral artery was connected, whereby the blood flow in the vertebral artery was measured by using an electromagnetic flow meter. The test compound was injected into the vertebral artery by near arterial injection, and the blood flow-increasingactivity in the vertebral artery was represented by ED50 (i.e. the dose of a test compound at which the blood flow increases by 50%, as evaluated on the basis that the blood flow increase (representing substantially the maximum reaction) by the administration of 100 μg/kg papaverine hydrochloride into the vertebral artery, is evaluated to be 100%).

Hydrochloric acid ulcer = Hydrochloric acid ulcer inhibiting activity; format: in vivo, wister rats; conditions: rat; oral administration of 30 μg/kg; 0.6N hydrochloric acid; read-out: Hydrochloric acid ulcer inhibiting activity, Inhibiting rate
Protocol: Hydrochloric acid ulcer inhibiting activity
Male wister […] having a weight of from 190 to 240 g were used. The rats were starved in the same manner as in Test Example 6, and the test compounds and PGE2 were, respectively, orally administered in an amount of 30 μg/kg, and 30 minutes later, 1 ml of 0.6N hydrochloric acid was orally administered. Thirty minutes after the hydrochloric acid administration, each rat was killed by cervical vertebral luxation. Then, the stomach was taken out and fixed, and the ulcer index was obtained, in the same manner as in Test Example 6. The hydrochloric acid ulcer inhibiting activity of a test compound was represented by the inhibiting percentage (i.e. the percentage of the ulcer index of the treated group to the ulcer index of the non-treated group). To the non-treated group, the solvent was administered.

[3] = tested on: Blood platelet (Collagen agglutination); test: Blood platelet agglutination inhibiting activity (collagen-induced), washed rabbit platelet suspension; format: cell-based, rabbit (Japanese white male rabbits); conditions: for Activity ratio, platelet agglutination inhibiting activity, Collagen agglutination: relative to prostacyclin = 1
Protocol: as §1, §2, §3, §4, §5

[4] = oral administration of 60 μg/kg twice

In the case of CCCCC[C@H](O)/C=C/[C@@H]1[C@H]2C=C(CCCCC(=O)O)C[C@H]2C[C@H]1O [9-(O)-methano-Δ^6 -PGI1], the “Chemical stability (in words)” value [1] is given as “chemically stable”.
With CCC#CCC(C)[C@H](O)/C=C/[C@@H]1[C@H]2CCC(C=CCCC(=O)O)=C[C@H]2C[C@H]1O (stereo partly drawn) [(d), 3-(4-carboxy-1-butenyl)-7-exo-(3α-hydroxy-4,8-dimethyl-trans-1-octen-6-ynyl)-8-endo-hydroxy-cis-bicyclo[4,3,0]nona-2-ene] the “Indomethacine ulcer inhibiting activity, Inhibiting rate” value (from here on “Indomethacine ulcer inhibiting activity”) (Indomethacine ulcer; [4]) was 73.5%, the ED (50 mmHg) (diastolic blood pressure; Canis lupus familiaris, iv, dog, femoral vein, Table 1, read-out: Hypotensive activity ED50 (dose reducing diastolic blood pressure by 50 mmHg)) was 8.7 µg/kg and the “Activity ratio, hypotensive activity” value (diastolic blood pressure) was 1/36. For the same compound, the ED50 (femoral artery) was 0.9 µg/kg, the “Activity ratio, blood flow-increasing activity in femoral artery” value (femoral artery) was 1/38 and the IC50 [2] was 8.7 nM. For the same compound, the “Activity ratio, platelet agglutination inhibiting activity, ADP agglutination” value [2] was 1/3, the “Anti-ulcer activity (in words)” value (ulcer) was “comparable or superior to typical PG having anti-ulcer activities, such as PGE2” and the ED50 (Ethanol ulcer) was 2.55 µg/kg. For the same compound, the ED50 (coronary artery) was 0.38 µg/kg, the “Activity ratio, blood flow-increasing activity in coronary artery” value (coronary artery) was 1/38 and the ED50 (vertebral artery) was 1.9 µg/kg. For the same compound, the “Activity ratio, blood flow-increasing activity in vertebral artery” value (vertebral artery) was 1/43 and the inhibition in vivo at 0.03 mg/kg (Hydrochloric acid ulcer) was 24.1%.
In the case of CCC#CCC(C)[C@H](O)/C=C/[C@@H]1[C@H]2CCC(CCCCC(=O)O)=C[C@H]2C[C@H]1O (stereo partly drawn) [(f), 3-(4-carboxybutyl)-7-exo-(3α-hydroxy-4,8-dimethyl-trans-1-octen-6-ynyl)-8-endo-hydroxy-cis-bicyclo[4,3,0]nona-2-ene], the “Indomethacine ulcer inhibiting activity” value (Indomethacine ulcer; [4]) is reported as 38.8%, the “Hypotensive activity, blood pressure decrease” value (diastolic blood pressure; dog, at 10 μg/kg i.v.) is reported as 33 mmHg and the “Activity ratio, hypotensive activity” value (diastolic blood pressure) is reported as 1/77. The ED50 (femoral artery) was 0.56 µg/kg, the “Activity ratio, blood flow-increasing activity in femoral artery” value (femoral artery) was 1/23 and the “Activity ratio, platelet agglutination inhibiting activity, Collagen agglutination” value [3] was 1/8. For the same compound, the IC50 [2] was 23 nM, the “Activity ratio, platelet agglutination inhibiting activity, ADP agglutination” value [2] was 1/8 and the “Anti-ulcer activity (in words)” value (ulcer) was “comparable or superior to typical PG having anti-ulcer activities, such as PGE2”. The ED50 (Ethanol ulcer) was 2.92 µg/kg, the ED50 (coronary artery) was 1.75 µg/kg and the “Activity ratio, blood flow-increasing activity in coronary artery” value (coronary artery) was 1/269. The ED50 (vertebral artery) was 0.57 µg/kg, the “Activity ratio, blood flow-increasing activity in vertebral artery” value (vertebral artery) was 1/13 and the inhibition in vivo at 0.03 mg/kg (Hydrochloric acid ulcer) was 20.5%.
In the case of CCC#CCC(C)[C@H](O)/C=C/[C@@H]1[C@H]2CC=C(CCCCC(=O)O)C[C@H]2C[C@H]1O (some centres unmarked) [(i)], the “Indomethacine ulcer inhibiting activity” value (Indomethacine ulcer; oral administration of 10 μg/kg twice (so in the source)) is reported as 49.5%, the “Hypotensive activity, blood pressure decrease” value (diastolic blood pressure; at 60 μg/kg i.v. (so in the source), Table 2) is reported as 24.5 mmHg and the “Hypotensive activity, blood pressure decrease” value (diastolic blood pressure; dog, at 10 μg/kg i.v.) is reported as 24.5 mmHg. The “Activity ratio, hypotensive activity” value (diastolic blood pressure) was 1/152, the ED50 (femoral artery) was 0.56 µg/kg and the “Activity ratio, blood flow-increasing activity in femoral artery” value (femoral artery) was 1/23. For the same compound, the IC50 ([3]; Oryctolagus cuniculus, Platelet, collagen 1 μg/ml, concentration suppressing agglutination to 50%, read-out: Platelet agglutination inhibiting activity ED50, Collagen agglutination) was 24 nM, the “Activity ratio, platelet agglutination inhibiting activity, Collagen agglutination” value [3] was 1/7 and the IC50 [2] was 22 nM. The ED50 (Ethanol ulcer) was 5.89 µg/kg, the ED50 (coronary artery) was 3.6 µg/kg and the “Activity ratio, blood flow-increasing activity in coronary artery” value (coronary artery) was 1/360. For the same compound, the ED50 (vertebral artery) was 0.8 µg/kg, the “Activity ratio, blood flow-increasing activity in vertebral artery” value (vertebral artery) was 1/18 and the inhibition in vivo at 0.03 mg/kg (Hydrochloric acid ulcer) was 17.4%.
For O=C(O)CCC/C=C1\C[C@H]2C[C@@H](O)[C@H](/C=C/[C@@H](O)C3CCCC3)[C@H]2C1 [OP-41483], the “Chemical stability (in words)” value [1] is given as “chemically stable”.
In the case of CCCCC[C@H](O)/C=C/[C@@H]1[C@H]2CC(CCCCC(=O)O)=C[C@H]2C[C@H]1O [isocarbacyclin, 9(O)-methano-Δ^6(9α) -PGI1], the “Chemical stability (in words)” value [1] is given as “adequately chemically stable”.
